Assay [1] concerns the target T1, A disintegrin and metalloproteinase with thrombospondin motifs 5 (Homo sapiens, UniProt Q9UNA0).
T1 sequence (Q9UNA0 whole entry): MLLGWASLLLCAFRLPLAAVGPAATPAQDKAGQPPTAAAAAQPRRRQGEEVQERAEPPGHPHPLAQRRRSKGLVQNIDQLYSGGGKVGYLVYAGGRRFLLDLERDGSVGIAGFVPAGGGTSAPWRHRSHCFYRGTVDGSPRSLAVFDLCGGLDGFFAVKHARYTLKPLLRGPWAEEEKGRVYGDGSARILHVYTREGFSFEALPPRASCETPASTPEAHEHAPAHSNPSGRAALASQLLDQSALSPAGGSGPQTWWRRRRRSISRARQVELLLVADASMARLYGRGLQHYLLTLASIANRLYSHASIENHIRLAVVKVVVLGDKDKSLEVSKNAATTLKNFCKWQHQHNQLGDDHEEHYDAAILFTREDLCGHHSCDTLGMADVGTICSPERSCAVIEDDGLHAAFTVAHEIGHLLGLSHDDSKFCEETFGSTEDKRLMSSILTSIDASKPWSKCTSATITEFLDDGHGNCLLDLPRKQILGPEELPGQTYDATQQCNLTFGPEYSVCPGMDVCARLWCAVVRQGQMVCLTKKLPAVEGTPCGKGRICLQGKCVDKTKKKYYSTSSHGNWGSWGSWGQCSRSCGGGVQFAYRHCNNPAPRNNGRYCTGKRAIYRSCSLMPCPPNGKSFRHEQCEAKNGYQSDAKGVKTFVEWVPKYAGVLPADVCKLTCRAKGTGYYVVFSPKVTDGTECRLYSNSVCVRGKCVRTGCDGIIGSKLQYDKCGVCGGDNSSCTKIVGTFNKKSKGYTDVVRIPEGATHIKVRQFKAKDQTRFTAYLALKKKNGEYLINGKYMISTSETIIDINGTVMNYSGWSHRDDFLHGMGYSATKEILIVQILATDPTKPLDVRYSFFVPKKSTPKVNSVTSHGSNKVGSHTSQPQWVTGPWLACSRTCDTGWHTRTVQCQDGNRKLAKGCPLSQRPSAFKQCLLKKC
The assay can be described thus: Inhibition of ADAMTS5 by FRET assay.

Assay [2] concerns the target T2, A disintegrin and metalloproteinase with thrombospondin motifs 4 (Homo sapiens, UniProt O75173).
T2 sequence (O75173 whole entry): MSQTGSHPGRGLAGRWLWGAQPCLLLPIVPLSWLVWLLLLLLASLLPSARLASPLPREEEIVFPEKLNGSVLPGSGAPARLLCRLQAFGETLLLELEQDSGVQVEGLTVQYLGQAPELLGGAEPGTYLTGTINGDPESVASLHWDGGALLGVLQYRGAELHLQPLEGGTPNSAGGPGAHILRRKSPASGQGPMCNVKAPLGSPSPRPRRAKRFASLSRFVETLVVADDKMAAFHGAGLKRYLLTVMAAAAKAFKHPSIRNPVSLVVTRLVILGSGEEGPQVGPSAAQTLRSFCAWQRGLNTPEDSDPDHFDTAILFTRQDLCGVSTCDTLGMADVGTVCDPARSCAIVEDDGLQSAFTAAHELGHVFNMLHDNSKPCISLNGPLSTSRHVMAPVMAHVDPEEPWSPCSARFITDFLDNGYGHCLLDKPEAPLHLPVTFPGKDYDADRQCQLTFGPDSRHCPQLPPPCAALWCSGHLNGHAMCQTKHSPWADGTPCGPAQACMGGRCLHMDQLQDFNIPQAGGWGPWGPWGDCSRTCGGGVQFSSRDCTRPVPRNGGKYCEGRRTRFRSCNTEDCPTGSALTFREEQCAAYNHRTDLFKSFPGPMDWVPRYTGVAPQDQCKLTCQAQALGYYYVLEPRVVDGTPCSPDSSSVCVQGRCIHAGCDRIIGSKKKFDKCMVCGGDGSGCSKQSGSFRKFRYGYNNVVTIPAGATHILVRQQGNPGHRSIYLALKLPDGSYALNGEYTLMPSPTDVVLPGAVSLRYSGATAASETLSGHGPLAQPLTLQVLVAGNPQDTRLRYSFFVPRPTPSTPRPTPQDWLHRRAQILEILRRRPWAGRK
The assay can be described thus: Inhibition of ADAMTS4.

The target of assay [3] is Macrophage metalloelastase (Homo sapiens, UniProt P39900). The assay can be described thus: Inhibition of MMP12.
In assay [4] the target is Collagenase 3 (Homo sapiens, UniProt P45452). The assay can be described thus: Inhibition of MMP13.

Each structure is given as a SMILES string.

Macrophage metalloelastase, sequence (P39900 whole entry): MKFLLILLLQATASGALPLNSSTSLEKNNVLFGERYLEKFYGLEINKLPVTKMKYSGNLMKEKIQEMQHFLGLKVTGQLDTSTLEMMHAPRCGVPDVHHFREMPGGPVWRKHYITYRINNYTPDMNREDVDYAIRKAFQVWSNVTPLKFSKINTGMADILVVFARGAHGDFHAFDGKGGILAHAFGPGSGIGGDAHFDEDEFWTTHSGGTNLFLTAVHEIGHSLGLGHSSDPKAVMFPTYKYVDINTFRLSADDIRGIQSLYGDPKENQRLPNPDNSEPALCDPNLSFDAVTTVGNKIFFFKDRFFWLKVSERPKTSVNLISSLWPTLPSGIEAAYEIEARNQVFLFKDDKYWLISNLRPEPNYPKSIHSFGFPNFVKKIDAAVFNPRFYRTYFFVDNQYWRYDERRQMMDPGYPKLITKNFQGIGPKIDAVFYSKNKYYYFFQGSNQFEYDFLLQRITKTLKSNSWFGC

As usually defined, the IC50 is the point on the concentration scale where inhibition reaches its midpoint. In the case of `COc1ccc(C2=NNC3(S2)C(=O)Nc2cc(Cl)ccc23)cc1` (stereo unspecified), the midpoint of inhibition in assay [1], the IC50, lay at 1.2 µM.
`CCc1ccc2c(c1)C1(NN=C(c3ccccc3)S1)C(=O)N2` (stereo unspecified): the half-maximal inhibitory concentration (IC50) in assay [1] was 9.6 µM.
For `O=C1Nc2ccccc2C12NN=C(c1ccccc1)S2` (stereo unspecified), the IC50 in assay [1] turned out to be 24.2 µM.
Consider `CCCc1ccc2c(c1)NC(=O)C21NN=C(c2ccc(OC)cc2)S1` (stereo unspecified), for which the IC50 in assay [2] is above 22 µM; in assay [3], 1.7 µM; in assay [4] it was above 22 µM.
`Cc1ccc(C2=NNC3(S2)C(=O)N(c2ccccc2C)c2ccc(C)cc23)cc1` (stereo unspecified) registered a concentration for half-maximal inhibition (IC50) in assay [1] of 1.2 µM.
As to `CCc1ccc2c(c1)C1(NN=C(c3ccc(OC)cc3)S1)C(=O)N2` (stereo unspecified), in assay [1], half-maximal inhibition (IC50) was put at 1.4 µM.
In the case of `COc1ccc(C2=NNC3(S2)C(=O)N(Cc2ccccc2)c2ccccc23)cc1` (stereo unspecified), the IC50 is above 22 µM in assay [2], 5.6 µM in assay [3], above 100 µM in assay [4] and 0.87 µM in assay [1].
Turning to `CC(C)N1C(=O)C2(NN=C(c3ccccc3)S2)c2ccccc21` (stereo unspecified), inhibition in assay [1] was half-maximal at 3.1 µM (IC50).
Molecule `COc1ccc(C2=NNC3(S2)C(=O)Nc2ccc(C)cc23)cc1` (stereo unspecified) had an IC50 in assay [1] of 2.5 µM.
In the case of `Cc1ccc(C2=NNC3(S2)C(=O)Nc2ccccc23)cc1` (stereo unspecified), in assay [1], the IC50 is 3.7 µM.
In turn, `Cc1ccc(C2=NNC3(S2)C(=O)Nc2ccc(C)cc23)cc1` (stereo unspecified) gave a half-inhibitory concentration (IC50) in assay [1] of 3 µM.
For the molecule `CCc1ccc2c(c1)C1(NN=C(c3ccc(C)cc3)S1)C(=O)N2` (stereo unspecified), in assay [1], the IC50 was determined as 1.9 µM.
On the same count and under the same terms, the same measure for `COc1ccc(C2=NNC3(S2)C(=O)N(C)c2ccccc23)cc1` (stereo unspecified): 7.5 µM.
Take `COc1ccc(C2=NNC3(S2)C(=O)N(c2ccccc2C)c2ccc(C)cc23)cc1` (stereo unspecified): the IC50 in assay [2] is 10.5 µM; in assay [3] it was above 22 µM; in assay [4], above 100 µM.
With `COc1ccc(C2=NNC3(S2)C(=O)N(Cc2ccccc2)c2ccc(C)cc23)cc1` (stereo unspecified), the half-inhibitory concentration (IC50) was above 22 µM in assay [3] and above 100 µM in assay [4].
Consider `CCCc1cc2c(cc1C)C1(NN=C(c3ccc(OC)cc3)S1)C(=O)N2Cc1ccccc1` (stereo unspecified), for which the midpoint of inhibition in assay [1], the IC50, lay at 0.95 µM.
With `COc1ccc(C2=NNC3(S2)C(=O)Nc2ccc(Cl)cc23)cc1` (stereo unspecified), the IC50 in assay [1] was found to be 2 µM.
In assay [1], `Cc1ccc(C2=NNC3(S2)C(=O)N(C)c2ccccc23)cc1` (stereo unspecified) gave a 50% inhibitory concentration (IC50) of 4.6 µM.

For the origin of these results see ChEMBL document CHEMBL1137466, “5'-Phenyl-3'H-spiro[indoline-3,2'-[1,3,4]thiadiazol]-2-one inhibitors of ADAMTS-5 (aggrecanase-2)” (Bioorg Med Chem Lett, 2007).
